US10183032B2, “Methods for treating bacterial infection” (Ball State Innovation Corporation, priority 2012, dated 2019)
“Also recorded” adds a separate entry of the source.

Experiments:
Type in all cases: cell-based
[1] = tested on: Staphylococcus aureus; assay: Assessment of bactericidal activity (HUVEC media)
Protocol: FIG. 6B illustrates that neither cytotoxicity nor bactericidal activity is detected. Cultures of Staphylococcus aureus that had been incubated with the vehicle control DMSO or with ML 141 (1 hour, 37° C., 225 rpm) were serially diluted, plated onto blood agar, and incubated (18 hours, 37° C.). Colonies were enumerated and colony forming units (CFU)/ml determined. CFU/ml were not different amongst the groups (p>0.05 by t-test; n=2/treatment). […]

[2] = tested on: Staphylococcus aureus; assay: S. aureus invasion of serum-starved RAW 264.7 cells, CFU recovery; details: treatment 1 hour, serum-starved conditions, 10 μM
Protocol: FIG. 5 is a graph illustrating ML 141 inhibiting invasion with shorter duration exposure under serum starved conditions. RAW 264.7 cells were serum-starved overnight then pretreated for 1 hour with the vehicle control dimethyl sulfoxide (DMSO) or with ML 141 (10 μM). Following infection with Staphylococcus aureus (1 hour), extracellular bacteria were eliminated using the antimicrobials gentamicin and lysostaphin (45 minutes), and intracellular bacteria recovered by permeabilizing the host cells. Serial dilutions of the recovered intracellular bacteria were incubated on tryptic soy agar, colonies enumerated, and colony forming units (CFU)/ml calculated (*less than vehicle control; p≤0.05 by Student's t-test; n=3/treatment). […]
(§1) Two days prior to the assay, TSB is inoculated with S. aureus (American Type Culture Collection #29213) and incubated overnight (225 rpm, 37° C.). […] To detect the level of infection using flow cytometry, cells that have been infected with fluorescently-labeled bacteria are washed extensively with PBS, lifted from 96-well plate by incubation with trypsin, washed extensively in FACS buffer (2% BSA/0.1% sodium azide/PBS), fixed (FACS buffer containing 0.74% formaldehyde), and are counted using an Accuri flow cytometer (BD, Franklin Lakes, N.J.). […]

[3] = tested on: Staphylococcus aureus; assay: Intracellular S. aureus population in HUVEC 48 hours post infection, CFU; details: HUVEC pretreated 18 hours (1.0 μM FIG. 7; 10 μM FIG. 11), infected 1 hour
Protocol: FIG. 7 is a graph illustrating suppression of intracellular population sustained over time. Human umbilical vein endothelial cells (HUVEC) were pretreated (1.0 μM, 18 hours) with the vehicle control dimethyl sulfoxide (DMSO) or ML 141 and infected with Staphylococcus aureus (1 hour). At 48 hours, intracellular bacteria were recovered, serial dilutions incubated on tryptic soy agar and colonies enumerated. Data are presented as % control, ±SEM (*less than vehicle control; p≤0.05 by t-test; n=3-5/treatment).
FIG. 11 is a graph illustrating suppression of intracellular population sustained over time. […]
as §1, with “N.J.). They are also lifted from culture dishes using cell scrapers, pelleted, fixed (1% BSA/0.74% formaldehyde/PBS), and are counted using an Accuri flow cytometer.” for “N.J.).”

COc1ccc(C2CC(c3ccccc3)=NN2c2ccc(S(N)(=O)=O)cc2)cc1 (stereo not shown) [ML 141, 4-[3-(4-methoxyphenyl)-5-phenyl-3,4-dihydropyrazol-2-yl]benzenesulfonamide]
CFU (×10^8 ± SEM), Compound (10 μM) ([1]; 1.2 × 10^8 CFU S. aureus, 1 h in HUVEC media, 10 μM): 8.8 ± 2.9 ×10^8 CFU | Bactericidal activity (in words) ([1]; S. aureus incubated 1 h with compound, FIG. 6B, Tables 6 and 7): not detected | inhibition of invasion, shorter exposure [2]: Inhibition is detectable | viable intracellular bacteria recovered 48 hours post-infection [3]: diminished the number of viable bacteria recovered; also recorded: lower
